# Experimental data published in patent publication US20090239951A1, “Crystalline Material” (priority 2006, published 2009).
# Experiments:
# Format in all cases: physicochemical
# [1] = Hygroscopicity versus relative humidity
# [2] = Heat stability of crystalline form; settings: solid crystalline form
# [3] = Conversion of crystal form on being dissolved or slurried in solvents
# [4] = Stability of the crystal form (general statement)
# [5] = Stability of Form N-5 slurries in ethanol:water mixtures; settings: ethanol:water mixtures (1:1, 1:1.3 and 1:2) at 5, 25 and 30° C. after 1 h, 48 h and 5 days; confirmed by DSC and FTIR
# Protocol: The stability of N-5 slurries in ethanol:water mixtures (1:1, 1:1.3 and 1:2) at 5, 25 and 30° C. was determined after 1 h, 48 h and 5 days. […] DSC and FTIR confirmed this.
non-hygroscopic up to a relative humidity of [1] [%],heat stable up to [2],"form conversion on being dissolved or slurried ([3]; common solvents: alcohols such as methanol, ethanol or isopropanol, nitromethane or nitroethane, alcohol/water mixtures)",becoming hygroscopic at a relative humidity of [1] [%],stability of crystal form [4],"stability when slurried in the presence of an alcohol ([3]; slurried in the presence of an alcohol, after very long periods conversion into Form N-6 may occur)",stability of slurries (transformation to other form) [5],SMILES
95,at least 170 °C,–,–,–,–,–,"CC(C)c1cc(Oc2c(Br)cc(NC(=O)CC(=O)O)cc2Br)ccc1O [Form N-6, 3-[[3,5-dibromo-4-[4-hydroxy-3-(1-methylethyl)-phenoxy]-phenyl]-amino]-3-oxopropanoic acid]"
–,around 125 °C,converts into Form N-5 and/or Form N-6,50,unstable,–,–,"CC(C)c1cc(Oc2c(Br)cc(NC(=O)CC(=O)O)cc2Br)ccc1O [Form N-1, 3-[[3,5-dibromo-4-[4-hydroxy-3-(1-methylethyl)-phenoxy]-phenyl]-amino]-3-oxopropanoic acid, reference compound]"
95,at least 170 °C,–,–,–,stable for a number of days,did not transform to any other form,"CC(C)c1cc(Oc2c(Br)cc(NC(=O)CC(=O)O)cc2Br)ccc1O [Form N-5, 3-[[3,5-dibromo-4-[4-hydroxy-3-(1-methylethyl)-phenoxy]-phenyl]-amino]-3-oxopropanoic acid]"
